Consider five compounds from paper PMC9458062, “^131I-C19 Iodide Radioisotope and Synthetic I-C19 Compounds as K-Ras4B–PDE6δ Inhibitors: A Novel Approach against Colorectal Cancer—Biological Characterization, Biokinetics and Dosimetry” (Molecules, 2022).

Data set [1] relates to bone marrow polychromatic erythrocytes. Put plainly: Genotoxicity, bone marrow micronucleus assay. Conditions: 24 h, per 2000 PCEs (vehicle 7 ± 2).
Method: The test compounds were intraperitoneally administered once, as a solution, at a concentration of 15 mg/kg of 5-fluorouracil (5-Fu) and 30 mg/kg of C19 or I-C19. Bone marrow cells were obtained 24 h after treatment and stained with Giemsa-Wright (Diff-Quick; Harleco; Gibbstown, NJ, USA). Two-thousand polychromatic erythrocytes were counted per animal using an optical microscope at 100× magnification to determine the number of micronucleated polychromatic erythrocytes.
Data set [2] concerns colon adenocarcinoma. The data set is described as follows: AOM/DSS colorectal cancer mouse model. Type of data set: in vivo, C57BL/6 male mice. The conditions noted are these: AOM/DSS mice.
Method: Aberrant glands formed these lesions, and the cells that formed them presented atypical nuclei with evident nucleoli and loss of mucus production. The percentage of mice colorectal tissue affected with these lesions was considered as the percentage of colon adenocarcinoma in mice.
Six-week-old C57BL/6 male mice, with a weight of approximately 20 g, were intraperitoneally injected with a single dose of azoxymethane (AOM) (10 mg/kg). […] For the control group, the same procedure was performed with normal intraperitoneal saline and pure drinking water instead of the AOM/DSS treatment.
Paraffin sections of colon tumor samples were deparaffinized in xylene and rehydrated in a series of graded alcohols. Antigens were retrieved in 0.01 M sodium citrate buffer and 0.1M EDTA-Tris buffer (Novocastra™ Epitope Retrieval Solutions, cat. RE7113; Leica Biosystems). Samples were incubated in 0.9% H2O2 for 5 min, followed by 1 h of blocking in 1% BSA in PBS. […] Then, the samples were developed with the Betazoid DAB Chromogen Kit (Cat. BDB2004H; BIOCARE Medical), counter-stained with hematoxylin and mounted with synthetic resin solution (Entallan.107960; Merck).
Data set [3] has as its system CCD-18Co. On the set-up: method as in PMID 30382908. The conditions noted are these: CCD-18Co healthy cell line; cited from earlier work.
Data set [4] deals with micronuclei. Conditions: mice, 30 mg/kg; cited from earlier work.
Data set [5] deals with CMT93 (mice colorectal cancer) allograft tumors. On the set-up: method as in PMID 19569179. Conditions: 30 min post-injection; cited from earlier work.
The subject of data set [6] is HCT116. Put plainly: XTT cell viability. The conditions noted are these: HCT116, 8.8 µM, 1.44 Bq/cell, 72 h. Type of data set: cell-based, human. As for the experimental part:
(§1) The human CRC cell lines, LoVo (ATCC® CCL-229™), SW620 (ATCC® CCL-227™) and HCT116 (ATCC® CCL-247™), were acquired from ATCC and cultured in F12K medium (Kaighn’s Modification of Ham’s F-12 Medium), DMEM-F12 medium and RPMI-1640 medium, (ATCC, Manassas, VA, USA), respectively. The human colorectal fibroblast CCD-18Co line was grown in an EMEM medium (ATCC, Manassas, VA, USA). The media were added with 10% fetal bovine serum and a 1% penicillin/streptomycin solution. Cells were incubated at 37 °C in a humidified atmosphere of 5% CO2.
(§2) The CCD-18Co, SW620, LoVo and HCT116 cell lines were plated in 96-well plates at a density of 10^4 cells/well for 24 h to allow for adherence. Then, the cells were treated with the I-C19 compound for 72 h. Cell viability was evaluated by the XTT (2,3-bis[2-methoxy-4-nitro-5-sulfophenyl]-2H-tetrazolium-5-carboxyanilide) assay kit (Roche, Germany), based on to the manufacturer’s instructions. The required I-C19 concentration, which produced fifty percent cell death at 72 h, was calculated by fitting a model with Prism software (GraphPad Software, San Diego, CA, USA).
(§3) For the assessment of dual therapy, beta radiation emission from ^131I-labeled C19 was also evaluated. The mitochondrial dehydrogenase activity in living HCT116, LoVo and SW620 cells was considered to measure the contribution of ^131I beta radiation to cell death, and the cell viability analysis was carried out after exposure to concentrations ten times lower than the IC50 obtained for each cancer cell line (8.8, 1.8 and 6.8 µM, respectively). Cell viability was evaluated by the XTT (2,3-bis[2-methoxy-4-nitro-5-sulfophenyl]-2H-tetrazolium-5-carboxyanilide) assay kit (Roche, Germany), based on to the manufacturer’s instructions. Briefly, colorectal cancer cell lines at a density of 10^4 cells/well were seeded in 96-well microtiter plates. The viability after treatment was measured 72 h (incubation in 5% CO2, 85% humidity and 37 °C). The absorbance in each well was recorded in a microplate reader (Epoch; BioTek Instruments; Winooski, VT, USA) at 450 nm. […]

Data set [7] has as its system LoVo. Put plainly: XTT cell viability. Conditions: 1.8 µM, 1.44 Bq/cell, 72 h. Type of data set: cell-based, human. How it is done: as §1, §2, §3
In data set [8] the test system is SW620. Put plainly: XTT cell viability. It counts as cell-based, human. Conditions: SW620, 6.8 µM, 1.44 Bq/cell, 72 h. As for the experimental part: as §1, §2, §3
For data set [9], the system named is HCT116. Put plainly: Cell uptake, internalization and radiation absorbed dose to the nucleus. It counts as cell-based, human. The conditions noted are these: for total uptake in the cell membrane (of the total radioactivity): 1.44 Bq/cell. How it is done:
(§4) The HCT116, LoVo and SW620 cells were seeded in 48-well tissue culture plates at a density of 10^5 cells/well. After 24 h, the cells were exposed to 1.44 Bq/cell of ^131I-C19 (200 μL) at 37 °C for 1, 3 and 5 h. After treatment, two washes (1 mL of ice-cold PBS) were performed. For the calculation of the cell uptake, the cells in each well were treated (at room temperature for 5 min) with 500 μL of glycine buffer (50 mM, pH 2.8). Then, this fraction was removed, and the radioactivity was measured in a NaI (Tl) detector (BCL, San Rafael CA, USA). To evaluate the ^131I-C19 internalization, the cells were incubated with 1 mL of NaOH 0.3 M (at room temperature for 10 min). Once more, the radioactivity was measured in a NaI (Tl) detector (BCL, San Rafael CA, USA). A 100% standard solution (200 μL) of ^131I-C19 was also measured (n = 5). The uptake (%) (plasmatic membrane) and internalization (%) (cytoplasm) were used to obtain the radiation absorbed dose.
(§5) For estimation of the radiation absorbed doses to the HCT116, LoVo and SW620 cells’ nuclei, Equation (1) was used:(1) DN←source=(NCS×DFN←CS)+(NCy×DFN←Cy) where DN←source denotes the mean absorbed dose to the nucleus from source regions (i.e., cell surface—CS; cytoplasm—Cy); NCS and NCy are the total nuclear transformations occurring in the membrane and cytoplasm, respectively, calculated from the mathematical integration (from t = 0 to t = ∞) of the activity estimated in the internalization and cell uptake experiments; DFN←CS and DFN←Cy represent the dose factors specific for [^131I] from the cell surface (plasmatic membrane) and cytoplasm regions to the nucleus configuration. The dose factor geometries were obtained from S values (HCT116 cell radius = 10 μm, nucleus radius = 5 μm; LoVo and SW620 cell radius = 10 μm, nucleus radius = 6 μm).

Data set [10] relates to LoVo. Described as above. Type of data set: cell-based, human. Conditions: for total uptake in the cell membrane (of the total radioactivity): 1.44 Bq/cell. As for the experimental part: as §4, §5
In data set [11] the test system is SW620. The data set is described as above. Type of data set: cell-based, human. Conditions: for total uptake in the cell membrane (of the total radioactivity): 1.44 Bq/cell. As for the experimental part:
as §4, §5

Data set [12] concerns colorectal cancer cell lines. Put plainly: Cell uptake, initial. Type of data set: cell-based, human. Conditions: before the 3 h increase. As for the experimental part: as §4
In data set [13] the test system is γ-H2AX foci in HCT116. Put plainly: DNA double-stranded breaks, γ-H2AX foci assay. It counts as cell-based, human. As for the experimental part: (§6) For the evaluation of DNA double-stranded breaks (DSBs), the phosphorylation of the Ser-139 gamma histone variant H2AX (γH2AX) was used as a biomarker. Cells, diluted to a suitable concentration, were grown on a glass slide after exposure to I-C19 or ^131I-labeled C19 (1.8, 6.8 and 8.8 µM for the cell lines LoVo, SW620 and HCT116, respectively) for 3 h. The anti-phospho-histone H2A.X (ser139) (1:200; CST, Boston, MA, USA) antibody was used as the primary antibody. The Alexa-488-conjugated anti-rabbit IgG was used for the visualization of γH2AX. […] To quantify the foci, clear and easily distinguishable dots were counted. At least 30 cells were imaged per slide, and the average number of foci per cell was calculated.

Data set [14] concerns γ-H2AX foci in LoVo. The data set is described as follows: DNA double-stranded breaks, γ-H2AX foci assay. It counts as cell-based, human. The conditions noted are these: 1.8 µM, 3 h. How it is done:
as §6

Data set [15] has as its system γ-H2AX foci in SW620. The data set is described as follows: DNA double-stranded breaks, γ-H2AX foci assay. It counts as cell-based, human. The conditions noted are these: SW620, 6.8 µM, 3 h. As for the experimental part:
as §6

The nature of data set [16]: Biodistribution and biokinetic models. Type of data set: in vivo, Nu/Nu mice with LoVo xenograft tumors. How it is done:
^131I-C19 was intraperitoneally injected (200 µL, 5 MBq (135 µCi/mice)) into nu/nu mice. The mice (n = 3) were euthanized at 0.5, 1, 3, 5, 24, 48, 92 and 144 h post-injection. Whole tumor, lung, liver, pancreas, spleen, kidney, large intestine (colon) and blood were rinsed and placed into pre-weighed plastic test tubes. The activity was determined in a NaI(Tl) detector (Canberra) along with three 0.5 mL aliquots of the diluted standard, representing 100% of the injected activity and used for radioactive decay correction. Mean activity values in each organ were correlated with those of the standard (representing the initial injected activity) to obtain the percentage of injected dose (% ID) at different times. The % ID values of each organ or tumor were input into the Olinda/EXM 2.0 software and adjusted to exponential functions (first-order kinetics) to obtain biokinetic models corrected by radioactive decay ( qh(t) ) (Equation (2)), which corresponded to the I-C19 compound. Likewise, the Ah(t) functions, which corresponded to the ^131I-C19 biokinetic models, were obtained considering λeff as =λB+λR , where the biological constant is represented by λB and the ^131I − radioactive decay constant is λR (Equation (3)). (2) qh(t)=Ah(t)×e^λR = Be^(−λBb)t+Ce^(−λBc)t+De^(−λBd)t (3) Ah(t)=Be^−(λBb+λR)t+Ce^−(λBc+λR)t+De^−(λBd+λR)t

Each structure is given as a SMILES string.

`O=c1[nH]cc(F)c(=O)[nH]1` [5-Fu, 5-fluorouracil, reference compound]: in [1] (15 mg/kg single intraperitoneal injection), the “frequency of micronucleated polychromatic erythrocytes (MNPCEs)” value was determined as 27 ± 4.

By IC50 is commonly meant the midpoint of a concentration-inhibition curve. Take `COc1ccc(CN[C@@H](C)C(=O)Nc2cc(Cl)ccc2Cl)cc1OC` [C19, (2S)-N-(2,5-dichlorophenyl)-2-[(3,4-dimethoxyphenyl)methylamine]propanamide]: in data set [2] (30 mg/kg intraperitoneally every day for 12 days (vehicle 7–8%)), the “percentage of colon adenocarcinoma” value is recorded as 5–6%. For the same compound, the “CEA marker, IHC” value in data set [2] (30 mg/kg, 12 days (vehicle 65%)) was 12.5 % of neoplastic tissue. Also, the IC50 in data set [3] is 60.8 µM. Further, the “frequency of micronucleated polychromatic erythrocytes (MNPCEs)” value in [1] (30 mg/kg single intraperitoneal injection, not significant) is on record as 12 ± 1.

For `O=P1(N(CCCl)CCCl)NCCCO1` (stereo not drawn) [CP, Cyclophosphamide], in [4], the induction of micronuclei entry is “strong”.

As for `[125I-].[Na+]` [Na[^125I]], the “activity in tumor tissue” value in data set [5] is 9.1 % ID/g.

Turning to `COc1ccc(CNC(C)C(=O)Nc2cc([131I])ccc2[131I])cc1OC` (stereo not drawn) [^131I-C19], the “cell viability compared to unlabeled I-C19 at the same concentration” value in data set [6], in data set [7] and in data set [8] was “viability significantly decreased” throughout. The “internalized activity into the cytoplasm” value was determined as 2.45 ± 0.21% in data set [9] (HCT116, 3 h); 1.63 ± 0.05% in data set [9] (HCT116, 5 h); 2.90 ± 0.82% in data set [10] (3 h); 0.30 ± 0.04% in data set [10] (5 h); 2.66 ± 0.30% in data set [11] (SW620, 3 h); 1.44 ± 0.14% in data set [11] (SW620, 5 h). In addition, the “total uptake in the cell membrane (of the total radioactivity)” value in data set [9] (HCT116, 3 h) is reported as 43.6 ± 4.7%; in data set [9] (HCT116, 5 h) it was 1.63 ± 0.34%; in data set [10] (3 h), 40.2 ± 6.4%; in data set [10] (5 h), 1.80 ± 0.18%; in [11] (SW620, 3 h), 45.6 ± 6.7%; in [11] (SW620, 5 h), 25.62 ± 4.71%. In addition, the initial uptake in data set [12] is on record as 3.28–3.6%. Moreover, the “γ-H2AX foci, ^131I-C19 vs. I-C19 at the same concentration” value in data set [13] (HCT116, 8.8 µM, 3 h) is reported as “almost three times more γ-H2AX foci”. Also, the “level of DSBs relative to the control” value in [13] (HCT116, exposure to ^131I beta radiation) is “six times higher than the control”. Besides, the “γ-H2AX foci increase, ^131I-C19 vs. I-C19 at the same concentration” value is 2.1 times in data set [14] and 2.3 times in data set [15]. For the same compound, the “activity concentration in the tumor tissue” value in [16] (LoVo tumor, after 1 h) stood at 4.4 % ID/g. The route of excretion result in data set [16] (biodistribution, 5 MBq intraperitoneal) was “renal and hepatobiliary excretion”. Further, the “remaining fraction of activity cleared slowly from the blood” value in data set [16] (intraperitoneal, fitted biexponential model) is on record as 10.2%.
